{"source": "PubChem BioAssay (NCI)", "test_in_all_cases": "NCI tumour cell line growth inhibition, 48 h", "key": {"SK-MEL-28 melanoma": {"system": "SK-MEL-28 melanoma"}, "HOP-62 NSCLC": {"system": "HOP-62 NSCLC"}, "HS 578T breast": {"system": "HS 578T breast"}, "RPMI-8226 leukemia": {"system": "RPMI-8226 leukemia"}, "MOLT-4 leukemia": {"system": "MOLT-4 leukemia"}, "SK-OV-3 ovarian": {"system": "SK-OV-3 ovarian"}, "MALME-3M melanoma": {"system": "MALME-3M melanoma"}, "OVCAR-4 ovarian": {"system": "OVCAR-4 ovarian"}, "NCI/ADR-RES ovarian": {"system": "NCI/ADR-RES ovarian"}, "ACHN renal": {"system": "ACHN renal"}, "MDA-MB-231 breast": {"system": "MDA-MB-231 breast"}, "NCI-H226 lung": {"system": "NCI-H226 lung"}, "M14 melanoma": {"system": "M14 melanoma"}, "DU-145 prostate": {"system": "DU-145 prostate"}, "NCI-H460 lung": {"system": "NCI-H460 lung"}, "HT29 colon": {"system": "HT29 colon"}, "SNB-19 CNS": {"system": "SNB-19 CNS"}, "SN12C renal": {"system": "SN12C renal"}, "SF-268 CNS": {"system": "SF-268 CNS"}, "OVCAR-5 ovarian": {"system": "OVCAR-5 ovarian"}, "SW-620 colon": {"system": "SW-620 colon"}, "HOP-92 NSCLC": {"system": "HOP-92 NSCLC"}, "OVCAR-8 ovarian": {"system": "OVCAR-8 ovarian"}, "IGROV1 ovarian": {"system": "IGROV1 ovarian"}, "HCT-116 colon": {"system": "HCT-116 colon"}, "TK-10 renal": {"system": "TK-10 renal"}, "NCI-H522 lung": {"system": "NCI-H522 lung"}, "A549 NSCLC": {"system": "A549 NSCLC"}, "T-47D breast": {"system": "T-47D breast"}, "SR leukemia": {"system": "SR leukemia"}, "KM12 colon": {"system": "KM12 colon"}, "UACC-257 melanoma": {"system": "UACC-257 melanoma"}, "SF-539 CNS": {"system": "SF-539 CNS"}, "COLO 205 colon": {"system": "COLO 205 colon"}, "UO-31 renal": {"system": "UO-31 renal"}, "CAKI-1 renal": {"system": "CAKI-1 renal"}, "SK-MEL-5 melanoma": {"system": "SK-MEL-5 melanoma"}, "786-0 renal": {"system": "786-0 renal"}, "HL-60(TB) leukemia": {"system": "HL-60(TB) leukemia"}, "U251 CNS": {"system": "U251 CNS"}, "K-562 leukemia": {"system": "K-562 leukemia"}, "CCRF-CEM leukemia": {"system": "CCRF-CEM leukemia"}, "SNB-75 CNS": {"system": "SNB-75 CNS"}, "PC-3 prostate": {"system": "PC-3 prostate"}, "EKVX NSCLC": {"system": "EKVX NSCLC"}, "SF-295 CNS": {"system": "SF-295 CNS"}, "BT-549 breast": {"system": "BT-549 breast"}, "RXF 393 renal": {"system": "RXF 393 renal"}, "MCF7 breast": {"system": "MCF7 breast"}, "MDA-N": {"system": "MDA-N"}, "OVCAR-3 ovarian": {"system": "OVCAR-3 ovarian"}, "HCT-15 colon": {"system": "HCT-15 colon"}, "A498 renal": {"system": "A498 renal"}, "SK-MEL-2 melanoma": {"system": "SK-MEL-2 melanoma"}, "LOX IMVI melanoma": {"system": "LOX IMVI melanoma"}, "MDA-MB-435": {"system": "MDA-MB-435"}}, "note": "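Protocol summary: plate cells (96-well), add compound at 5 concentrations, incubate 48 h, interpolate endpoints linearly. At the GI50, growth is halved. The concentration for full growth arrest is given as TGI.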", "data": [{"smiles": "COc1cc(C2c3cc4c(cc3C3OC[C@@H]2C3CO)OCO4)cc(OC)c1OC", "note": "(some centres not stated)", "values": [{"measurement": "TGI", "setting": "SK-MEL-28 melanoma", "result": "> 100", "unit": "µM"}, {"measurement": "GI50", "setting": "HOP-62 NSCLC", "result": 47.4, "unit": "µM"}, {"measurement": "TGI", "setting": "HOP-62 NSCLC", "result": "> 100", "unit": "µM"}, {"measurement": "TGI", "setting": "HS 578T breast", "result": 95.7, "unit": "µM"}, {"measurement": "TGI", "setting": "RPMI-8226 leukemia", "result": "> 100", "unit": "µM"}, {"measurement": "TGI", "setting": "MOLT-4 leukemia", "result": "> 100", "unit": "µM"}, {"measurement": "TGI", "setting": "SK-OV-3 ovarian", "result": "> 100", "unit": "µM"}, {"measurement": "TGI", "setting": "MALME-3M melanoma", "result": "> 100", "unit": "µM"}, {"measurement": "TGI", "setting": "OVCAR-4 ovarian", "result": "> 100", "unit": "µM"}, {"measurement": "TGI", "setting": "NCI/ADR-RES ovarian", "result": 39.3, "unit": "µM"}, {"measurement": "TGI", "setting": "ACHN renal", "result": "> 100", "unit": "µM"}, {"measurement": "TGI", "setting": "MDA-MB-231 breast", "result": "> 100", "unit": "µM"}, {"measurement": "TGI", "setting": "NCI-H226 lung", "result": 47, "unit": "µM"}, {"measurement": "TGI", "setting": "M14 melanoma", "result": "> 100", "unit": "µM"}, {"measurement": "GI50", "setting": "DU-145 prostate", "result": 30.4, "unit": "µM"}, {"measurement": "TGI", "setting": "DU-145 prostate", "result": "> 100", "unit": "µM"}, {"measurement": "TGI", "setting": "NCI-H460 lung", "result": 47.8, "unit": "µM"}, {"measurement": "TGI", "setting": "HT29 colon", "result": "> 100", "unit": "µM"}, {"measurement": "TGI", "setting": "SNB-19 CNS", "result": "> 100", "unit": "µM"}, {"measurement": "GI50", "setting": "SN12C renal", "result": 59.4, "unit": "µM"}, {"measurement": "TGI", "setting": "SN12C renal", "result": "> 100", "unit": "µM"}, {"measurement": "TGI", "setting": "SF-268 CNS", "result": "> 100", "unit": "µM"}, {"measurement": "TGI", "setting": "OVCAR-5 ovarian", "result": "> 100", "unit": "µM"}, {"measurement": "TGI", "setting": "SW-620 colon", "result": "> 100", "unit": "µM"}, {"measurement": "TGI", "setting": "HOP-92 NSCLC", "result": "> 100", "unit": "µM"}, {"measurement": "TGI", "setting": "OVCAR-8 ovarian", "result": "> 100", "unit": "µM"}, {"measurement": "TGI", "setting": "IGROV1 ovarian", "result": "> 100", "unit": "µM"}, {"measurement": "GI50", "setting": "HCT-116 colon", "result": 30.3, "unit": "µM"}, {"measurement": "TGI", "setting": "HCT-116 colon", "result": "> 100", "unit": "µM"}, {"measurement": "TGI", "setting": "TK-10 renal", "result": "> 100", "unit": "µM"}, {"measurement": "TGI", "setting": "NCI-H522 lung", "result": 47.8, "unit": "µM"}, {"measurement": "TGI", "setting": "A549 NSCLC", "result": "> 100", "unit": "µM"}, {"measurement": "TGI", "setting": "T-47D breast", "result": "> 100", "unit": "µM"}, {"measurement": "TGI", "setting": "SR leukemia", "result": "> 100", "unit": "µM"}, {"measurement": "TGI", "setting": "KM12 colon", "result": "> 100", "unit": "µM"}, {"measurement": "TGI", "setting": "UACC-257 melanoma", "result": 76.5, "unit": "µM"}, {"measurement": "GI50", "setting": "SF-539 CNS", "result": 17.7, "unit": "µM"}, {"measurement": "TGI", "setting": "SF-539 CNS", "result": 37.3, "unit": "µM"}, {"measurement": "TGI", "setting": "COLO 205 colon", "result": 33.6, "unit": "µM"}, {"measurement": "TGI", "setting": "UO-31 renal", "result": "> 100", "unit": "µM"}, {"measurement": "TGI", "setting": "CAKI-1 renal", "result": "> 100", "unit": "µM"}, {"measurement": "TGI", "setting": "SK-MEL-5 melanoma", "result": 27.9, "unit": "µM"}, {"measurement": "TGI", "setting": "786-0 renal", "result": "> 100", "unit": "µM"}, {"measurement": "TGI", "setting": "HL-60(TB) leukemia", "result": 18.7, "unit": "µM"}, {"measurement": "TGI", "setting": "U251 CNS", "result": "> 100", "unit": "µM"}, {"measurement": "TGI", "setting": "K-562 leukemia", "result": "> 100", "unit": "µM"}, {"measurement": "TGI", "setting": "CCRF-CEM leukemia", "result": "> 100", "unit": "µM"}, {"measurement": "TGI", "setting": "SNB-75 CNS", "result": "> 100", "unit": "µM"}, {"measurement": "TGI", "setting": "PC-3 prostate", "result": "> 100", "unit": "µM"}, {"measurement": "TGI", "setting": "EKVX NSCLC", "result": "> 100", "unit": "µM"}, {"measurement": "TGI", "setting": "SF-295 CNS", "result": "> 100", "unit": "µM"}, {"measurement": "TGI", "setting": "BT-549 breast", "result": 97.6, "unit": "µM"}, {"measurement": "TGI", "setting": "RXF 393 renal", "result": "> 100", "unit": "µM"}, {"measurement": "TGI", "setting": "MCF7 breast", "result": "> 100", "unit": "µM"}, {"measurement": "TGI", "setting": "MDA-N", "result": 36.1, "unit": "µM"}, {"measurement": "GI50", "setting": "OVCAR-3 ovarian", "result": 23.9, "unit": "µM"}, {"measurement": "TGI", "setting": "OVCAR-3 ovarian", "result": 97.9, "unit": "µM"}, {"measurement": "TGI", "setting": "HCT-15 colon", "result": 71.5, "unit": "µM"}, {"measurement": "TGI", "setting": "A498 renal", "result": "> 100", "unit": "µM"}, {"measurement": "TGI", "setting": "SK-MEL-2 melanoma", "result": "> 100", "unit": "µM"}, {"measurement": "TGI", "setting": "LOX IMVI melanoma", "result": "> 100", "unit": "µM"}, {"measurement": "TGI", "setting": "MDA-MB-435", "result": 51.1, "unit": "µM"}]}]}
